One assay deals with T1, MMP-1 (Homo sapiens, UniProt P03956).
T1 sequence (P03956 100-469): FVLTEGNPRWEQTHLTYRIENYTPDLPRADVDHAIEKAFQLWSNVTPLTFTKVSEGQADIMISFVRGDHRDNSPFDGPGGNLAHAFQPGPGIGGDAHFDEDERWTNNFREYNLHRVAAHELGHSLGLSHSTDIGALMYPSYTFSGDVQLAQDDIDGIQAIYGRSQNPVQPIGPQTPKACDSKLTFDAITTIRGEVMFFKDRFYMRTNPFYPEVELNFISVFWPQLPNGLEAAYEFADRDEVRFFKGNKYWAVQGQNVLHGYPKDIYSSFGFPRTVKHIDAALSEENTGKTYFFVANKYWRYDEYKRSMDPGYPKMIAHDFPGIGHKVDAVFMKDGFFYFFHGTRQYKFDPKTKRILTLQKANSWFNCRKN
As to the kind of experiment: Assay for inhibition of collagenase. In kind it is biochemical. The following applies: human fibroblast collagenase activated with APMA; substrate fluorescein-labeled bovine type I collagen; 35°C, 2 hours, pH 7.5. As to the method: (§1) Described below are assays for biological activities of the compounds according to the present invention, formulations, dosage forms and dosage levels thereof, and miscellaneous matters. The efficacy of the compounds represented by the formula (I) according to the present invention as inhibitors of human fibroblast collagenase (metalloproteinase involved in the breakdown of tissues) is determined by a procedure based on the method of Y. Murawaki et al., Journal of Hepatology, 18, p328-334 (1993). The efficacy of the compounds (I) of this invention as inhibitors of human fibroblast stromelysin is determined by a procedure based on the method of S. S. Twining, Anal. Biochem., 143, p30 (1984). The assay results obtained are shown hereinbelow, together with biological examples which illustrate embodiments of the assay protocols.
The efficacy of compounds of the present invention to act as inhibitors of human fibroblast collagenase was determined by the procedure of Y. Murawaki et al. (Journal of Hepatology, 18, p.328-334, 1993).
Procollagenase was activated by incubation with 2 mM 4-aminophenylmercuric acetate (APMA) at 35°C for 2 hours. The inhibition was assayed using, as a substrate, fluorescein-labeled bovine type I collagen. To a solution of the substrate (0.5 mg/ml) in a 50 mM Tris-HCl buffer, pH 7.5, containing 0.4M aqueous sodium chloride and 10 mM aqueous calcium chloride was added the activated collagenase. The resultant solution was incubated at 35°C for 2 hours. The digestion of the substrate with the enzyme was stopped by addition of 80 mM o-phenanthroline, followed by addition of a porcine elastase solution formed by dissolving 25µ g/ml porcine elastase in the aforementioned Tris-HCl buffer. The mixture was incubated at 37°C for 10 minutes. To the resulting solution was added 70% ethanol, and a 170 mM Tris-HCl buffer, pH 9.5, containing 0.67 M aqueous sodium chloride. Undigested substrates were precipitated by centrifugation at 3000 x g for 20 minutes. The supernatant was collected and the fluorescence was read using an excitation wavelength of 495 nm and an emission wavelength of 520 nm. The inhibitory potency of the compounds was calculated. IC50 represents the concentration of each test compound requited for 50% inhibition of cleavage of substrates by the enzyme alone. The compounds of the present invention have potent inhibitory activities (Table 1).

Another assay deals with MMP-3 (Homo sapiens, UniProt P08254). As to the kind of experiment: Assay for inhibition of stromelysin. The class given is biochemical. The settings on record: human fibroblast stromelysin activated with human plasmin; substrate fluorescein-labeled casein; 37°C, 2 hours, pH 7.8. The protocol: as §1
MMP-3, sequence (P08254 100-477): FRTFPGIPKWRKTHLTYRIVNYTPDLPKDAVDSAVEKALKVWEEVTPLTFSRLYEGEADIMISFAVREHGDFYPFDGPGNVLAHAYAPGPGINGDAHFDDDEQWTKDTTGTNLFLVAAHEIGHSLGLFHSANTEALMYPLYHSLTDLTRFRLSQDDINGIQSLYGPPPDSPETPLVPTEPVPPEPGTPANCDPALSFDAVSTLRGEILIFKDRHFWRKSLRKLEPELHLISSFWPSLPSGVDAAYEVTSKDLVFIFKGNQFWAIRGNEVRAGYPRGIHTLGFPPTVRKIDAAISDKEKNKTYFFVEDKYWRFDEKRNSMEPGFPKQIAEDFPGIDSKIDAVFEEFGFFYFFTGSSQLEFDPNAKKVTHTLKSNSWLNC
The efficacy of compounds of the present invention to act as inhibitors of human fibroblast stromelysin was determined by the procedure of Twining (Anal. Biochem., 143, p.30, 1984).
Prostromelysin was activated by incubation with 20µ g/ml human plasmin at 37°C for 2 hours, and the reaction was stopped by addition of 2.8 mg/ml aqueous diisopropyl fluorophosphate. The inhibition was assayed using, as a substrate, fluorescein-labeled casein. To a solution of the substrate (1 mg/ml) in a 50 mM Tris-HCl buffer, pH 7.8, containing 10mM aqueous calcium chloride was added the activated stromelysin. The resultant solution was incubated at 37°C for 2 hours. The digestion of the substrate with the enzyme was stopped by addition of 5% trichloroacetic acid. Undigested substrates were precipitated by centrifugation at 3000 x g for 20 minutes. The supernatant was collected, followed by addition of a 0.5M Tris-HCl buffer, pH 8.5. The fluorescence was read using an excitation wavelength of 495 nm and an emission wavelength of 520 nm. The inhibitory potency of the compounds was calculated. IC50 represents the concentration of each test compound requited for 50% inhibition of cleavage of substrates by the enzyme alone. […]

Counter-ions that a name gives are not always drawn.

With `COC(=O)[C@H](Cc1ccc(CN)cc1)NC(=O)[C@H](CC(C)C)[C@H](CCCc1ccccc1)C(=O)NO` [Compound No. 7, N^a-[4-(N-Hydroxyamino)-2(R)-isobutyl-3(S)-(3-phenylpropyl)-succinyl]-L-4'-aminomethylphenylalanine methyl ester · 1 acetate], at MMP-1, the IC50 (in general, the midpoint of a concentration-inhibition curve) is 0.167 µM.
For `CC(C)C[C@@H](C(=O)N[C@@H](Cc1ccc(CN)cc1)C(=O)O)[C@H](CCCc1ccccc1)C(=O)NO` [Compound No. 8, N^a-[4-(N-Hydroxyamino)-2(R)-isobutyl-3(S)-(3-phenylpropyl)-succinyl]-L-4'-aminomethylphenylalanine · 1 hydrochloride], inhibition against MMP-1 was half-maximal at 0.34 µM (IC50).
Turning to `COC(=O)[C@H](Cc1ccc(CNC(C)=N)cc1)NC(=O)[C@H](CC(C)C)[C@H](CCCc1ccccc1)C(=O)NO` [Compound No. 9, N^a-[4-(N-Hydroxyamino)-2(R)-isobutyl-3(S)-(3-phenylpropyl)-succinyl]-L-4'-acetimidoyliminomethylphenylalanine methyl ester 1 hydrochloride], the 50% inhibitory concentration (IC50) was 0.02 µM on MMP-3 and 0.03 µM on MMP-1.
The matching figures for `CC(=N)NCc1ccc(C[C@H](NC(=O)[C@H](CC(C)C)[C@H](CCCc2ccccc2)C(=O)NO)C(=O)O)cc1` [Compound No. 10, N^a-[4-(N-Hydroxyamino)-2(R)-isobutyl-3(S)-(3-phenylpropyl)-succinyl]-L-4'-acetimidoyliminomethylphenylalanine · 1 acetate]: 0.07 µM and 0.5 µM.
In the same order, the values of `CC(C)C[C@@H](C(=O)N[C@@H](Cc1ccc(CN)cc1)C(=O)O)[C@H](CCCc1ccccc1)C(=O)NO` [Compound No. 11, N^a-[4-(N-Hydroxyamino)-2(R)-isobutyl-3(S)-(3-phenylpropyl)-succinyl]-L-4'-aminomethylphenylalanine] are 0.029 µM and 0.418 µM.

The record behind these values is patent EP1179529A1, “NOVEL HYDROXAMIC ACID DERIVATIVES” (Daiichi Fine Chemical Co., Ltd., priority 1999, dated 2000).
